Values of other authors as cited in patent US20050245902A1, “Substance delivery device” (priority 2002, published 2005).

Columns and labels:
[1] = in vivo

SMILES: CC(=O)[C@H]1CC[C@H]2[C@@H]3CCC4=CC(=O)CC[C@]4(C)[C@H]3CC[C@]12C [progesterone]
- half life [1]: 20 min
- water solubility: poorly water-soluble
